Like-named read-outs stand apart in the source and are kept apart here.
Legend:
[1] = test system: P. berghei-ANKA-GFP-LucCON liver stage parasites in HepG2-A16-CD81EGFP cells; assay: P. berghei liver stage Pb-Luc assay, Method 1 (UCSD, 1536-well); assay type: cell-based, Plasmodium berghei; conditions: for activity at 1 µM / activity at 3 µM / AC50: Plasmodium berghei; for activity at 1 µM / activity at 3 µM: 48 h
[2] = test system: luciferase-expressing P. berghei liver stage parasites in HepG2 cells; assay: Inhibition of liver-stage development assay (ILSDA), Method 2 (WRAIR, 96-well); assay type: cell-based, Plasmodium berghei; conditions: for Max Resp (signal direction of the dose response): Method 2, Decrease = decreasing P. berghei viability with dose, Increase = increasing signal, Inactive = no dose response; for Activity direction (Decrease / Inactive): P. berghei liver stage, Method 2, dose response; for AC50: Plasmodium berghei, HepG2, Method 2
[3] = test system: Plasmodium falciparum Dd2 asexual blood stage parasites; assay: microbe, parasite or virus in culture; set-up: species or system Plasmodium falciparum Dd2 in human erythrocytes; single determination (one 11-point concentration-response curve); conditions: Plasmodium falciparum, DD2, Erythrocyte, 72 h; read-out: AC50
[4] = in vitro; conditions: human, HepG2-A16-CD81EGFP cells, uninfected
[5] = in vitro; conditions: human, HepG2 cells; n = 1
[6] = test system: T1, Plasmodium falciparum Dd2-attB (parental line), asexual blood stages; assay: microbe, parasite or virus in culture; set-up: species or system P. falciparum Dd2-attB in human erythrocytes; SYBR Green-I proliferation assay, Dd2-attB parental line, asexual blood stages; conditions: Plasmodium falciparum, DD2, Erythrocyte, 72 h, read-out: Calculated / Average Log AC50 (M), mean of replicates, 72 h (converted)
T1 construct: Dd2-attB, the isogenic parental line

[7] = test system: HepG2-A16-CD81EGFP cells; conditions: average of 2 wells; for HepG2 viability signal, 1 uM, repeat 2: nominal 1 uM (10 mM stock), […] for 15 mM, 1.2 uM for 12 mM, 2 uM for 20 mM stock; for HepG2 viability signal, 3 uM, repeat 2: nominal 3 uM (10 mM stock), 4.5 uM for 15 mM, 3.6 uM for 12 mM, 6 uM for 20 mM stock
[8] = 1 uM (compounds provided at 10 mM), average of 2 wells on a 1536 well plate, column 11, read-out: Pb-Luc (P. berghei liver stage), % of control, lower concentration, first repeat
[9] = 1 uM (compounds provided at 10 mM), average of 2 wells on a 1536 well plate, column 12, read-out: Pb-Luc (P. berghei liver stage), % of control, lower concentration, second repeat
[10] = 3 uM (compounds provided at 10 mM), average of 2 wells on a 1536 well plate, column 8, read-out: Pb-Luc (P. berghei liver stage), % of control, higher concentration, first repeat
[11] = 3 uM (compounds provided at 10 mM), average of 2 wells on a 1536 well plate, column 9, read-out: Pb-Luc (P. berghei liver stage), % of control, higher concentration, second repeat
[12] = nominal 1 uM (10 mM stock), […] for 15 mM, 1.2 uM for 12 mM, 2 uM for 20 mM stock, average of 2 wells, 1536-well plate, repeat 1, read-out: Pb-Luc signal, 1 uM, repeat 1
[13] = nominal 1 uM (10 mM stock), […] for 15 mM, 1.2 uM for 12 mM, 2 uM for 20 mM stock, average of 2 wells, 1536-well plate, repeat 2, read-out: Pb-Luc signal, 1 uM, repeat 2
[14] = nominal 1 uM (10 mM stock), […] for 15 mM, 1.2 uM for 12 mM, 2 uM for 20 mM stock, average of 2 wells, 1536-well plate, repeat 3, read-out: Pb-Luc signal, 1 uM, repeat 3
[15] = nominal 3 uM (10 mM stock), 4.5 uM for 15 mM, 3.6 uM for 12 mM, 6 uM for 20 mM stock, average of 2 wells, 1536-well plate, repeat 1, read-out: Pb-Luc signal, 3 uM, repeat 1
[16] = nominal 3 uM (10 mM stock), 4.5 uM for 15 mM, 3.6 uM for 12 mM, 6 uM for 20 mM stock, average of 2 wells, 1536-well plate, repeat 2, read-out: Pb-Luc signal, 3 uM, repeat 2
[17] = nominal 3 uM (10 mM stock), 4.5 uM for 15 mM, 3.6 uM for 12 mM, 6 uM for 20 mM stock, average of 2 wells, 1536-well plate, repeat 3, read-out: Pb-Luc signal, 3 uM, repeat 3
[18] = Hill fit, 50% of maximum activity response, read-out: AC50
[19] = log10 of molar AC50 from Hill fit, read-out: Log AC50 (converted)

## O=c1cc(CSc2ccc(Cl)cc2)nc(-c2ccccn2)[nH]1 [MLS001166297-01]
[1]; [8]
  activity at 1 µM: 17%
[1]; [9]
  activity at 1 µM: 15%
[1]; [10]
  activity at 3 µM: 8%
[1]; [11]
  activity at 3 µM: 5%
[2]
  Max Resp (signal direction of the dose response): Inactive
[3]
  AC50: 5.96 µM
[4]
  viability at 48 h, 1 µM: 92%
  viability at 48 h, 3 µM: 73%
[5]
  CC50 at 48 h: 12.2 µM

## COC(=O)c1ccc(OC(C)=O)c2ncccc12 [NCGC00187997-01]
[6]
  AC50: 1.93e-05 M

## CCc1c(C)[nH]c2c(-c3cnn(-c4cc(CO)ccn4)c3)cnn2c1=O [NCGC00387307-02]
[6]
  AC50: 4.84e-08 M

## CC(C)c1c(-c2cnn(C(C)(C)C)c2)n2ncc(C#N)c2[nH]c1=O [NCGC00500019-01]
[6]
  AC50: 1.53e-05 M

## CC(C)(C)c1cc(N2CCC(NC(=O)c3ccccc3)C2)n[nH]1 (stereo not shown) [NCGC00488845-01]
[6]
  AC50: 2.25e-05 M

## COC(=O)CCNc1cc(N2CCCN(C(=O)C(C#N)=C(C)C)CC2)nc(-c2ccccn2)n1 [NCGC00420856-01]
[6]
  AC50: 1.42e-05 M

## O=C(O)c1ccc(O)c2ncc(N3CC(N4CCOCC4)C3)cc12 [NCGC00241761-01]
[6]
  AC50: 1.72e-05 M

## CCOC(=O)c1ccnc(-n2ncc(C(=O)OCC)c2-c2ccc(OC)cc2)c1 [NCGC00421879-01]
[6]
  AC50: 1.22e-05 M

## O=C(O)c1ccc(O)c2ncc(N3CCCC3)cc12 [NCGC00189500-01]
[6]
  AC50: 1.72e-05 M

## Cc1nn2c(c1-c1ccccc1-c1ccccc1)N(CC1CC1)CCC2 [NCGC00420435-01]
[1]; [12]
  activity at 1 µM: 52.9%
[1]; [13]
  activity at 1 µM: 51.5%
[1]; [14]
  activity at 1 µM: 66.1%
[1]; [15]
  activity at 3 µM: 2.42%
[1]; [16]
  activity at 3 µM: 7.19%
[1]; [17]
  activity at 3 µM: 5.92%
[1]; Method 1, Hill fit, 50% of maximum activity response, read-out: AC50
  AC50: 1.58 µM
[1]; Method 1, log10 of molar AC50 from Hill fit, read-out: Log AC50 (converted)
  AC50: 1.58 µM
[2]
  Activity direction (Decrease / Inactive): Inactive
[3]
  AC50: 0.968 µM
[7]
  HepG2 viability signal, 1 uM, repeat 2: 101.46%
  HepG2 viability signal, 3 uM, repeat 2: 45.92%
[4]
  viability at 48 h, 1 µM: 102%
  viability at 48 h, 3 µM: 53.6%
[5]
  CC50 at 48 h: 22.2 µM

## Cc1nc2ccc(NC(=O)c3cc(S(=O)(=O)N(C)c4ccccc4)ccc3Cl)cc2s1 [MLS000393823-01]
[1]; P. berghei liver stage, 1 µM compound treatment (10 mM stocks), replicate 1, normalized, average of 2 wells on a 1536 well plate, read-out: PbLuc 1uM growth rep1
  activity at 1 µM: 19%
[1]; P. berghei liver stage, 1 µM compound treatment (10 mM stocks), replicate 2, normalized, average of 2 wells on a 1536 well plate, read-out: PbLuc 1uM growth rep2
  activity at 1 µM: 15%
[1]; P. berghei liver stage, 3 µM compound treatment (10 mM stocks), replicate 1, normalized, average of 2 wells on a 1536 well plate, read-out: PbLuc 3uM growth rep1
  activity at 3 µM: 3.66%
[1]; P. berghei liver stage, 3 µM compound treatment (10 mM stocks), replicate 2, normalized, average of 2 wells on a 1536 well plate, read-out: PbLuc 3uM growth rep2
  activity at 3 µM: 5.53%
[2]
  Max Resp (signal direction of the dose response): Decrease
[2]; [18]
  AC50: 0.501 µM
[2]; [19]
  AC50: 0.501 µM
[3]
  AC50: 0.841 µM
[7]; HepG2, 1 µM compound treatment (10 mM stocks), replicate 1, normalized
  HepG2 1uM growth rep1: 61%
[7]; HepG2, 1 µM compound treatment (10 mM stocks), replicate 2, normalized
  HepG2 1uM growth rep2: 56%
[7]; HepG2, 3 µM compound treatment (10 mM stocks), replicate 1, normalized
  HepG2 3uM growth rep1: 59%
[7]; HepG2, 3 µM compound treatment (10 mM stocks), replicate 2, normalized
  HepG2 3uM growth rep2: 60%
[5]
  CC50 at 48 h: 9.68 µM

## O=C(Nc1ccccc1O)c1ccc(NC(=O)C2CC2)cc1 [MLS001162082-01]
[1]; [8]
  activity at 1 µM: 40%
[1]; [9]
  activity at 1 µM: 37%
[1]; [10]
  activity at 3 µM: 10%
[1]; [11]
  activity at 3 µM: 10%
[2]
  Max Resp (signal direction of the dose response): Decrease
[2]; [18]
  AC50: 2.24 µM
[2]; [19]
  AC50: 2.24 µM
[3]
  AC50: 4.73 µM
[4]
  viability at 48 h, 1 µM: 114%
  viability at 48 h, 3 µM: 108%
[5]
  CC50 at 48 h: 10.9 µM

## CC(C)c1ccc(CC(=O)N2CCCc3ncc(C(=O)Nc4cccnc4)cc32)cc1 [NCGC00420003-01]
[1]; Method 1, Decrease = decreasing P. berghei viability with dose, Increase = increasing signal, Inactive = no dose response
  Max Resp (signal direction of the dose response): Inactive
[1]; [12]
  activity at 1 µM: 24.7%
[1]; [13]
  activity at 1 µM: 4.89%
[1]; [14]
  activity at 1 µM: 35.4%
[1]; [15]
  activity at 3 µM: 3.66%
[1]; [16]
  activity at 3 µM: 2.01%
[1]; [17]
  activity at 3 µM: 4.19%
[2]
  Activity direction (Decrease / Inactive): Inactive
[3]
  AC50: 0.863 µM
[7]
  HepG2 viability signal, 1 uM, repeat 2: 94.19%
  HepG2 viability signal, 3 uM, repeat 2: 54.54%
[4]
  viability at 48 h, 1 µM: 99%
  viability at 48 h, 3 µM: 35.6%
[5]
  CC50 at 48 h: 19.8 µM

— PMC7822874, “Chemoprotective antimalarials identified through quantitative high-throughput screening of Plasmodium blood and liver stage parasites” (Scientific Reports, 2021)
